What was measured:
[1] = molecular target: T1, cathepsin B (Sigma, C-6286) (Bos taurus, UniProt P07688); assay: Inhibitory activity against cathepsin B; assay type: biochemical; settings: Inhibitory activity against cathepsin B (Table-5)
T1 construct: purchased Sigma C-6286
Protocol: Inhibitory activity against cathepsin B (Sigma, C-6286) was determined according to a method described in a literature (Biochemical Journal, Vol. 201, p. 189, 1982).

m-Calpain = molecular target: T2, m-Calpain (Rattus norvegicus, UniProt Q07009); assay: Inhibitory activity against calpain (m-Calpain purified from brains of rats); assay type: biochemical
T2 construct: m-Calpain was purified from brains of rats; from tissue; host or cells: rat brain
T2 sequence (Q07009 20-700 limits assumed): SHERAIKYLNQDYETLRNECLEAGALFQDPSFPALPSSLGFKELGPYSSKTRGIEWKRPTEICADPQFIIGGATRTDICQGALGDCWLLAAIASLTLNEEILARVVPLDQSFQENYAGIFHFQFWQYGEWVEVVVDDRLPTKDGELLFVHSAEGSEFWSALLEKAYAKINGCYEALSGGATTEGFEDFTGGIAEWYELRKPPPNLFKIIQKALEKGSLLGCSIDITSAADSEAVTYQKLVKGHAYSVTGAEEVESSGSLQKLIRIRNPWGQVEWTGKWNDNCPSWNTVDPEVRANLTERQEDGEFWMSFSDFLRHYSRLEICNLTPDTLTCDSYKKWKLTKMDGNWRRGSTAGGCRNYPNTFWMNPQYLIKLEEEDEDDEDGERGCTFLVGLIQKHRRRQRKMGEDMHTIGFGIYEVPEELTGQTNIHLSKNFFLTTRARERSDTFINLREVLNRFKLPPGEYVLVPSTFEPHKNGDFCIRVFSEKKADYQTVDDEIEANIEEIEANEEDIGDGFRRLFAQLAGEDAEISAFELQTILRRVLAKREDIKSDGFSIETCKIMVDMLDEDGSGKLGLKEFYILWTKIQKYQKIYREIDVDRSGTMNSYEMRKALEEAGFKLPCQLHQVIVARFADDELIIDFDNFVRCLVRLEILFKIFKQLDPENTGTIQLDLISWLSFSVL
T2 sequence (Q64537 1-270 partner): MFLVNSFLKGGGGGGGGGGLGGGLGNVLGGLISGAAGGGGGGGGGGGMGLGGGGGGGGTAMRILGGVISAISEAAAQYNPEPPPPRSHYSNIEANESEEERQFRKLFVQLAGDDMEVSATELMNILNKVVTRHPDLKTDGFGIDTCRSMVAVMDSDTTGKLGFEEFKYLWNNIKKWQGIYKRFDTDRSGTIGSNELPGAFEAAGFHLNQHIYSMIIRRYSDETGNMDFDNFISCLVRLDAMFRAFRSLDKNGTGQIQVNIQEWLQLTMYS
Protocol: m-Calpain was purified from brains of rats according to a method described in a literature (Journal of Biological Chemistry, Vol. 259, p. 3210, 1984), and the inhibitory activity was determined in a manner according to a published method (Journal of Biological Chemistry, Vol. 259, p. 12489, 1984).

[2] = Inhibitory activity against calpain (Table-6)
[3] = Inhibitory activity against calpain (continuation of Table-6)

SMILES | IC50 [1] [nM] | IC50 (m-Calpain; [2]) [nM] | IC50 (m-Calpain; [3]) [nM]
CC(C)C[C@H](NC(=O)OCc1ccccn1)C(=O)N[C@H]1CCOC1O (stereo partly drawn) [Example 25, (3S)-3-{(S)-4-methyl-2-(2-pyridylmethoxycarbonylamino)valerylamino}-2-tetrahydrofuranol] | 2900 | 1050 | –
CC(C)C[C@H](NC(=O)c1ccc(F)cc1)C(=O)N[C@H]1CCOC1O (stereo partly drawn) [Example 42, (3S)-3-{(S)-2-(4-fluorobenzoylamino)-4-methylvalerylamino}-2-tetrahydrofuranol] | 550 | 820 | –
CC(C)C[C@H](NC(=O)[C@H](CC(C)C)NS(=O)(=O)c1ccccc1)C(=O)N[C@H]1CCOC1O (stereo partly drawn) [Example 87, (3S)-3-{(S)-2-((S)-4-methyl-2-phenylsulfonylaminovalerylamino)-4-methylvalerylamino}-2-tetrahydrofuranol] | 1300 | – | 780
CCCC[C@H](NC(=O)OCc1ccccc1)C(=O)N[C@H]1CCOC1O (stereo partly drawn) [Example 6, (3S)-3-((S)-2-benzyloxycarbonylaminohexanoylamino)-2-tetrahydrofuranol] | 1350 | 2300 | –
COc1ccc(C=CC(=O)N[C@@H](CC(C)C)C(=O)N[C@H]2CCOC2O)cc1 (stereo partly drawn) [Example 65, (3S)-3-{(S)-2-(4-methoxycinnamoylamino)-4-methylvalerylamino}-2-tetrahydrofuranol] | 190 | – | 700
CC(C)C[C@H](NC(=O)Cc1cccc2ccccc12)C(=O)N[C@H]1CCOC1O (stereo partly drawn) [Example 33, (3S)-3-{(S)-4-methyl-2-(1-naphthylacetylamino)valerylamino}-2-tetrahydrofuranol] | 950 | 110 | –
CC(C)COC(=O)N[C@@H](CC(C)C)C(=O)N[C@H]1CCOC1O (stereo partly drawn) [Example 11, (3S)-3-((S)-2-isobutoxycarbonylamino-4-methylvalerylamino)-2-tetrahydrofuranol] | 2150 | 1100 | –
CCc1cc(C(=O)N[C@@H](CC(C)C)C(=O)N[C@H]2CCOC2O)n(C)n1 (stereo partly drawn) [Example 62, (3S)-3-{(S)-2-(3-ethyl-1-methyl-5-pyrazole)carbonylamino-4-methylvalerylamino}-2-tetrahydrofuranol] | 500 | – | 1000
CC(C)C[C@H](NC(=O)c1ccc(C(F)(F)F)cc1)C(=O)N[C@H]1CCOC1O (stereo partly drawn) [Example 51, (3S)-3-{(S)-4-methyl-2-(4-trifluoromethylbenzoylamino)valerylamino}-2-tetrahydrofuranol] | 210 | 480 | –
COc1cc(OC)cc(C(=O)N[C@@H](CC(C)C)C(=O)N[C@H]2CCOC2O)c1 (stereo partly drawn) [Example 56, (3S)-3-{(S)-2-(3,5-dimethoxybenzoylamino)-4-methylvalerylamino}-2-tetrahydrofuranol] | 900 | 640 | –
Cc1ccccc1COC(=O)N[C@@H](CC(C)C)C(=O)N[C@H]1CCOC1O (stereo partly drawn) [Example 18, (3S)-3-{(S)-4-methyl-2-(2-methylbenzyloxycarbonylamino)valerylamino}-2-tetrahydrofuranol] | 580 | 440 | –
CC(C)C[C@H](NC(=O)OCC1CCCCC1)C(=O)N[C@H]1CCOC1O (stereo partly drawn) [Example 12, (3S)-3-((S)-2-cyclohexylmethoxycarbonylamino-4-methylvalerylamino)-2-tetrahydrofuranol] | 1200 | 650 | –
CC(C)C[C@H](NC(=O)c1ccccc1)C(=O)N[C@H]1CCOC1O (stereo partly drawn) [Example 39, (3S)-3-((S)-2-benzoylamino-4-methylvalerylamino)-2-tetrahydrofuranol] | 200 | 370 | –
CC(C)C[C@H](NC(=O)c1ccco1)C(=O)N[C@H]1CCOC1O (stereo partly drawn) [Example 61, (3S)-3-{(S)-2-(2-furoylamino)-4-methylvalerylamino}-2-tetrahydrofuranol] | 1200 | – | 350
CC(C)C[C@H](NC(=O)c1ccc(Cl)cc1)C(=O)N[C@H]1CCOC1O (stereo partly drawn) [Example 43, (3S)-3-{(S)-2-(4-chlorobenzoylamino)-4-methylvalerylamino}-2-tetrahydrofuranol] | 140 | 360 | –
CC(C)C[C@H](NC(=O)c1ccc2c(c1)OCO2)C(=O)N[C@H]1CCOC1O (stereo partly drawn) [Example 58, (3S)-3-{(S)-4-methyl-2-(3,4-methylenedioxybenzoylamino)valerylamino}-2-tetrahydrofuranol] | 460 | – | 440

SMILES | IC50 [1] [nM] | IC50 (m-Calpain; [2]) [nM] | IC50 (m-Calpain; [3]) [nM]
Cc1ccc(C(=O)N[C@@H](CC(C)C)C(=O)N[C@H]2CCOC2O)cc1C (stereo partly drawn) [Example 48, (3S)-3-{(S)-2-(3,4-dimethylbenzoylamino)-4-methylvalerylamino}-2-tetrahydrofuranol] | 86 | 380 | –
COc1cccc(OC)c1C(=O)N[C@@H](CC(C)C)C(=O)N[C@H]1CCOC1O (stereo partly drawn) [Example 55, (3S)-3-{(S)-2-(2,6-dimethoxybenzoylamino)-4-methylvalerylamino}-2-tetrahydrofuranol] | 1650 | 840 | –
CC(C)C[C@H](NC(=O)OCc1ccccc1Cl)C(=O)N[C@H]1CCOC1O (stereo partly drawn) [Example 16, (3S)-3-{(S)-2-(2-chlorobenzyloxycarbonylamino)-4-methylvalerylamino}-2-tetrahydrofuranol] | 1000 | 340 | –
COc1ccc(COC(=O)N[C@@H](CC(C)C)C(=O)N[C@H]2CCOC2O)cc1 (stereo partly drawn) [Example 21, (3S)-3-{(S)-2-(4-methoxybenzyloxycarbonylamino)-4-methylvalerylamino}-2-tetrahydrofuranol] | 1170 | 340 | –
Cc1cccc(C(=O)N[C@@H](CC(C)C)C(=O)N[C@H]2CCOC2O)c1 (stereo partly drawn) [Example 45, (3S)-3-{(S)-4-methyl-2-(3-methylbenzoylamino)valerylamino}-2-tetrahydrofuranol] | 490 | 560 | –
CCC(C)[C@H](NC(=O)OCc1ccccc1)C(=O)N[C@H]1CCOC1O (stereo partly drawn) [Example 7, (3S)-3-((2S)-2-benzyloxycarbonylamino-3-methylvalerylamino)-2-tetrahydrofuranol] | 900 | 2400 | –
CCC[C@H](NC(=O)OCc1ccccc1)C(=O)N[C@H]1CCOC1O (stereo partly drawn) [Example 4, (3S)-3-((S)-2-benzyloxycarbonylaminovalerylamino)-2-tetrahydrofuranol] | 700 | 900 | –
CC(C)C[C@H](NC(=O)OCc1ccccc1)C(=O)N[C@H]1CCOC1O (stereo partly drawn) [Example 13, (3S)-3-((S)-2-benzyloxycarbonylamino-4-methylvalerylamino)-2-tetrahydrofuranol] | 380 | 660 | –
CC(C)C[C@H](NC(=O)OC1CCCCC1)C(=O)N[C@H]1CCOC1O (stereo partly drawn) [Example 27, (3S)-3-((S)-2-cyclohexyloxycarbonylamino-4-methylvalerylamino)-2-tetrahydrofuranol] | 1200 | 650 | –
CC(C)C[C@H](NC(=O)OC(C)(C)C)C(=O)N[C@H]1CCOC1O (stereo partly drawn) [Example 10, (3S)-3-((S)-2-tert-butoxycarbonylamino-4-methylvalerylamino)-2-tetrahydrofuranol] | 370 | 960 | –
CC(C)C[C@H](NS(=O)(=O)c1cccnc1)C(=O)N[C@H]1CCOC1O (stereo partly drawn) [Example 77, (3S)-3-{(S)-4-methyl-2-(3-pyridylsulfonylamino)valerylamino}-2-tetrahydrofuranol] | 400 | – | 1000
Cc1ccccc1C(=O)N[C@@H](CC(C)C)C(=O)N[C@H]1CCOC1O (stereo partly drawn) [Example 44, (3S)-3-{(S)-4-methyl-2-(2-methylbenzoylamino)valerylamino}-2-tetrahydrofuranol] | 1450 | 580 | –
CC(C)C[C@H](NC(=O)Oc1ccccc1)C(=O)N[C@H]1CCOC1O (stereo partly drawn) [Example 28, (3S)-3-((S)-4-methyl-2-phenoxycarbonylaminovalerylamino)-2-tetrahydrofuranol] | 1700 | 520 | –
CCc1ccc(C(=O)N[C@@H](CC(C)C)C(=O)N[C@H]2CCOC2O)cc1 (stereo partly drawn) [Example 50, (3S)-3-{(S)-2-(4-ethylbenzoylamino)-4-methylvalerylamino}-2-tetrahydrofuranol] | 200 | 650 | –
CC(C)[C@H](NC(=O)OCc1ccccc1)C(=O)NC1CCOC1O (stereo partly drawn) [Example 5, 3-((S)-2-benzyloxycarbonylamino-3-methylbutyrylamino)-2-tetrahydrofuranol] | 980 | 2300 | –
